# From patent US11932624B2, “MDM2 degraders and uses thereof” (Kymera Therapeutics, Inc., priority 2020, dated 2024)
# pIC50: −log10 of the molar value.
# System: RS411 cells
# Test: Cell Viability CTG Assay (CellTiter Glo) in RS411 cells
# Format: cell-based
# Details: Homo sapiens, RS4-11, 24 h, duration 1 day
# Method in brief: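 Read-out was CellTiter Glo luminescence, taken after 10 min at RT, following 1-4 days of incubation at 37 °C, 5% CO2. Cells were plated at 1000 per well with an 11-point, 3-fold series starting at 10 μM final in 0.2% DMSO. IC50 values are given as letter-code ranges.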
row,pIC50,Structure (SMILES)
1,< 6.00,"CNC(=O)c1ccc(N2C(=O)[C@H]3[C@H](c4cccc(Cl)c4F)[C@@](C#N)(c4ccc(Cl)cc4F)[C@H](CC(C)(C)C)N3C2CCCCCCCC#Cc2ccc3c(c2)n(C)c(=O)n3C2CCC(=O)NC2=O)c(OC)c1 (stereo partly drawn) [I-213, 4-[(5S,6R,7S,7aR)-7-(3-chloro-2-fluoro-phenyl)-6-(4-chloro-2-fluoro-phenyl)-6-cyano-5-(2,2-dimethylpropyl)-3-[9-[1-(2,6-dioxo-3-piperidyl)-3-methyl-2-oxo-benzimidazol-5-yl]non-8-ynyl]-1-oxo-3,5,7,7a-tetrahydropyrrolo[1,2-c]imidazol-2-yl]-3-methoxy-N-methyl-benzamide]"
2,7.00 to 7.30,"Cn1c(=O)n(C2CCC(=O)NC2=O)c2ccc(C#CCCCCCCCCN3[C@@H](C(=O)Nc4ccc(C(=O)O)cc4)[C@H](c4cccc(Cl)c4F)[C@]4(C(=O)Nc5cc(Cl)ccc54)C34CCCCC4)cc21 (stereo partly drawn) [I-214, 4-((3′R,4'S,5′R)-6″-chloro-4′-(3-chloro-2-fluorophenyl)-1′-(10-(1-(2,6-dioxopiperidin-3-yl)-3-methyl-2-oxo-2,3-dihydro-1H-benzo[d]imidazol-5-yl)dec-9-yn-1-yl)-2″-oxodispiro[cyclohexane-1,2′-pyrrolidine-3′,3″-indoline]-5′-carboxamido)benzoic acid]"
3,> 7.30,Cn1c(=O)n(C2CCC(=O)NC2=O)c2ccc(C#CCCCCCN3CCC(NC(=O)[C@@H]4NC5(CCCCC5)[C@@]5(C(=O)Nc6cc(Cl)ccc65)[C@H]4c4cccc(Cl)c4F)CC3)cc21 (stereo partly shown) [I-224]

# Continued, molecule first:
row,Structure (SMILES),pIC50
1,COc1cc2c(cc1OC(C)C)C(c1ccc(Cl)cc1)N(c1ccc(N(C)C(=O)C3CCN(CCCCCCc4ccc5c(c4)n(C)c(=O)n5C4CCC(=O)NC4=O)CC3)cc1)C(=O)C2 (stereo not shown) [I-209],< 6.00
2,CN(CCCCCc1ccc2c(c1)n(C)c(=O)n2C1CCC(=O)NC1=O)Cc1ccc(NC(=O)[C@@H]2NC3(CCCCC3)[C@@]3(C(=O)Nc4cc(Cl)ccc43)[C@H]2c2cccc(Cl)c2F)c2c1OCCO2 (stereo partly shown) [I-210],> 7.30
3,COc1cc2c(cc1OC(C)C)[C@H](c1ccc(Cl)cc1)N(c1ccc(N(C)C[C@H]3CC[C@H](N4CCN(CCc5ccc6c(c5)n(C)c(=O)n6C5CCC(=O)NC5=O)CC4)CC3)cc1)C(=O)C2 (stereo partly shown) [I-211],> 7.30
4,COc1cc2c(cc1OC(C)C)C(c1ccc(Cl)cc1)N(c1ccc(N(C)C[C@H]3CC[C@H](N(C)CCCCc4ccn5c(N6CCC(=O)NC6=O)cnc5c4)CC3)cc1)C(=O)C2 (stereo partly shown) [I-212],< 6.00
